Patent publication US20210330611A1, “THERAPY FOR NEUROLOGICAL DISEASES/DISORDERS” (priority 2020, published 2021)
Structures can show the parent of a compound that is named as a salt.

Tests used:
[1] = system: fibrin-induced microglia activation; experiment: Image-based assay of fibrin-induced microglia activation (HTS and dose response); assay type: cell-based, rat; details: primary microglia HTS, fibrin stimulation, activation = cell size >800 μm2; for inhibition at 10 µM: Rattus norvegicus, Microglia, read-out: Fibrin % inhibition
[2] = system: LPS-induced microglia activation; experiment: Image-based assay of LPS-induced microglia activation (HTS and dose response); assay type: cell-based, rat; details: primary microglia HTS, LPS stimulation, activation = cell size >800 μm2; for inhibition at 10 µM: Rattus norvegicus, Microglia, 48 h, read-out: LPS % inhibition
[3] = system: fibrin- and LPS-induced microglia activation; experiment: cells; assay type: cell-based, rat; details: quadrant by fibrin and LPS inhibition in HTS of 1907 compounds
primary rat microglia [4] = experiment: Cell toxicity (dead cells, size <150 μm2) in LPS assay; details: primary microglia HTS, LPS stimulation, toxicity = cell size <150 μm2
primary rat microglia [5] = experiment: Cell toxicity (dead cells, size <150 μm2) in coated fibrin (cFib) assay; details: primary microglia HTS, fibrin stimulation, toxicity = cell size <150 μm2;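 further: share of dead cells sized under 150 µm2 at 10 µM in fibrin-stimulated microglia HTS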

Row | SMILES | inhibition at 10 µM [1] | inhibition at 10 µM [2] | Quadrant (FIG. 5b) [3] | LPS % cell toxicity (primary rat microglia [4]) | Fibrin % cell toxicity (primary rat microglia [5]) | Fibrin % inhibition [1] | LPS % inhibition [2]
1 | O=C(c1ccccc1)c1ccc2n1CCC2C(=O)O (stereo not drawn) [Ketorolac] | 15% | 26% | Q4 | 0% | 0% |  | 
2 | CN1CCC(=C2c3ccccc3CC(=O)c3sccc32)CC1 [Ketotifen] | 1% | 15% | Q4 | 0% | 1% |  | 
3 | COc1c2occc2c(OC)c2c(=O)cc(C)oc12 [Khellin] | -16% | 5% | Q4 | 0% | 0% |  | 
4 | CC[C@H](C)[C@H](N)C(=O)O [L-Isoleucine] | -35% | 17% | Q4 | 0% | 0% |  | 
5 | C[C@](N)(Cc1ccc(O)c(O)c1)C(=O)O [L-alpha-methyl Dopa, Methyldopa] |  |  | Q4 | 0% | 0% | 4% | 15%
6 | OC[C@@H](O)[C@@H](O[C@@H]1O[C@H](CO)[C@H](O)[C@H](O)[C@H]1O)[C@H](O)[C@@H](O)CO [Lacitol] |  |  | Q4 | 1% | 1% | −24% | 18%
7 | Nc1nnc(-c2cccc(Cl)c2Cl)c(N)n1 [Lamotrigine] | -12% | 12% | Q4 | 0% | 1% |  | 
8 | CC(=O)O[C@H]1C[C@H](O[C@H]2[C@@H](O)C[C@H](O[C@H]3[C@@H](O)C[C@H](O[C@H]4CC[C@@]5(C)[C@H](CC[C@@H]6[C@@H]5C[C@@H](O)[C@]5(C)[C@@H](C7=CC(=O)OC7)CC[C@]65O)C4)O[C@@H]3C)O[C@@H]2C)O[C@H](C)[C@H]1O[C@@H]1O[C@H](CO)[C@@H](O)[C@H](O)[C@H]1O [Lanatoside C] |  |  | Q4 | 1% | 1% | 17% | 35%
9 | Cc1c(OCC(F)(F)F)ccnc1C[S+]([O-])c1nc2ccccc2[nH]1 (stereo not drawn) [Lansoprazole] | 3% | 15% | Q4 | 0% | 0% |  | 
10 | CO[C@@]1(NC(=O)C(C(=O)O)c2ccc(O)cc2)C(=O)N2C(C(=O)O)=C(CSc3nnnn3C)CO[C@@H]21 (stereo partly drawn) [Latamoxef] | -18% | 22% | Q4 | 0% | 1% |  | 
11 | CC(C)OC(=O)CCC/C=C\C[C@@H]1[C@@H](CC[C@@H](O)CCc2ccccc2)[C@H](O)C[C@@H]1O [Latanoprost] | 10% | 4% | Q4 | 0% | 1% |  | 
12 | Cc1oncc1C(=O)Nc1ccc(C(F)(F)F)cc1 [Lefunamide, Leflunomide] |  |  | Q4 | 0% | 0% | −22% | 10%
13 | Nc1nc2c(c(=O)[nH]1)N(C=O)C(CNc1ccc(C(=O)N[C@@H](CCC(=O)O)C(=O)O)cc1)CN2 (stereo partly drawn) [Leucovorin] | -29% | 8% | Q4 | 0% | 1% |  | 
14 | CCNC(=O)[C@@H]1CCCN1C(=O)[C@H](CCCNC(=N)N)NC(=O)[C@H](CC(C)C)NC(=O)[C@@H](CC(C)C)NC(=O)[C@H](Cc1ccc(O)cc1)NC(=O)[C@H](CO)NC(=O)[C@H](Cc1c[nH]c2ccccc12)NC(=O)[C@H](Cc1c[nH]cn1)NC(=O)[C@@H]1CCC(=O)N1 [Leuprolide] |  |  | Q4 | −1% | 1% | 5% | −3%
15 | N[C@H]1CONC1=O [Levcycloserine] | 2% | 12% | Q4 | 0% | 1% |  | 
16 | CC[C@@H](C(N)=O)N1CCCC1=O [Levetiracetam] | -24% | 7% | Q4 | 0% | 1% |  | 
17 | CC(C)(C)NC[C@H](O)COc1cccc2c1CCCC2=O [Levobunolol Hydrochloride] |  |  | Q4 | 0% | 0% | −19% | 12%
18 | CC(C)(C)NC[C@H](O)COc1cccc2c1CCCC2=O [Levobunolol] |  |  | Q4 | 0% | 1% | −28% | 30%
19 | CCCCN1CCCC[C@H]1C(=O)Nc1c(C)cccc1C [Levobupivacaine] | 34% | -10% | Q4 | 0% | 1% |  | 
20 | C[C@@H]1CN([C@H]2CC[C@](C#N)(c3ccc(F)cc3)CC2)CC[C@]1(C(=O)O)c1ccccc1 [Levocabastine] | 7% | 4% | Q4 | 0% | 1% |  | 
21 | CCC(=O)O[C@H](CC(=O)O)C[N+](C)(C)C [Levocarnitine Propionate Hydrochloride] | -16% | 12% | Q4 | 1% | 1% |  | 
22 | C[N+](C)(C)C[C@H](O)CC(=O)[O-] [Levocarnitine] | 8% | 15% | Q4 | 0% | 1% |  | 
23 | C[C@H]1COc2c(N3CCN(C)CC3)c(F)cc3c(=O)c(C(=O)O)cn1c23 [Levofloxacin] | 12% | 31% | Q4 | 0% | 1% |  | 
24 | C[C@@H]1CC(=O)NN=C1c1ccc(NN=C(C#N)C#N)cc1 [Levosimendan] | 46% | 42% | Q4 | 0% | 1% |  | 
25 | CCN1CCC[C@H]1CNC(=O)c1cc(S(N)(=O)=O)ccc1OC [Levosulpiride] | -36% | 18% | Q4 | 0% | 1% |  | 
26 | CC#CCn1c(N2CCC[C@@H](N)C2)nc2c1c(=O)n(Cc1nc(C)c3ccccc3n1)c(=O)n2C [Linagliptin] | 2% | 14% | Q4 | 1% | 1% |  | 
27 | CCC[C@@H]1C[C@@H](C(=O)N[C@@H]([C@H]2O[C@H](SC)[C@H](O)[C@@H](O)[C@H]2O)[C@@H](C)O)N(C)C1 [Lincomycin Hydrochloride] |  |  | Q4 | 0% | 1% | −4% | 14%
